Measured values as given in patent US20190364896A1, “SYNERGISTIC WEED CONTROL FROM APPLICATIONS OF PYRIDINE CARBOXYLIC ACID HERBICIDES AND ALS INHIBITORS” (Dow AgroSciences LLC, priority 2014, published 2019).

How the values were obtained:
[1] = test system: chickweed (Stellaria media, STEME); test: Postemergence herbicidal activity, greenhouse trial (visual injury 0-100%); type: in vivo; details: 15 g ai/ha
Protocol: (§1) Seeds of the desired test plant species were planted in Sun Gro MetroMix® 306 planting mixture, which typically has a pH of 6.0 to 6.8 and an organic matter content of about 30 percent, in plastic pots with a surface area of 103.2 square centimeters (cm^2). […] The plants were grown for 7-36 days (d) in a greenhouse with an approximate 14-hour (h) photoperiod which was maintained at about 23° C. during the day and 22° C. during the night. Nutrients and water were added on a regular basis and supplemental lighting was provided with overhead metal halide 1000-Watt lamps as necessary. The plants were employed for testing when they reached the second or third true leaf stage.
(§2) Weighed amounts of technical or formulated material (emulsifiable concentrate (EC) or soluble concentrate (SL)) were dissolved in a volume of 97:3 volume per volume (v/v) acetone/dimethyl sulfoxide (DMSO) to stock solutions. […] The concentrated stock solutions were diluted with an aqueous mixture of 1.5% v/v of Agri-dex crop oil concentrate to provide the appropriate application rates. Compound requirements are based upon a 12 milliliter (mL) application volume at a rate of 187 liters per hectare (L/ha). Spray solutions of the experimental compound mixtures were prepared by adding the stock solutions to the appropriate amount of dilution solution to form a 12 mL spray solution in two-way combinations. Formulated compounds were applied to the plant material with an overhead Mandel track sprayer equipped with 8002E nozzles calibrated to deliver 187 L/ha over an application area of 0.503 square meters (m^2) at a spray height of 18 inches (43 centimeters (cm)) above average plant canopy. Control plants were sprayed in the same manner with the solvent blank. Application rates for component (a) are in g ae/ha, and application rates for component (b) are in g ai/ha.
(§3) The treated plants and control plants were placed in a greenhouse as described above and watered by sub-irrigation to prevent wash-off of the test compounds. After 20-22 d, the condition of the test plants as compared with that of the control plants was determined visually and scored on a scale of 0 to 100 percent where 0 corresponds to no injury and 100 corresponds to complete kill. The condition of the test plants was compared with that of the control plants as determined visually and scored on a scale of 0 to 100 percent, where 0 corresponds to no injury and 100 corresponds to complete kill. Colby's equation was used to determine the herbicidal effects expected from the mixtures.
(§4) Compound 1 was formulated as an EC and was combined with florasulam, cloransulam, diclosulam, flumetsulam, penoxsulam, or pyroxsulam. Compound 2 was formulated as an EC and was combined with florasulam or pyroxsulam. The mixtures were applied to winter wheat (TRZAW), common rice (ORYSA), maize (ZEAMX), and the phytotoxicity of the herbicidal compositions was measured. In addition, the efficacy of the herbicidal compositions on blackgrass (Alopecurus myosuroides, ALOMY), pigweed (Amaranthus retrollexus, AMARE), wild oat (Avena fatua, AVEFA), common lambsquarters (Chenopodium album L., CHEAL), thistle (Cirsium arvense CIRAR), nutsedge (Cyperus esculentus, CYPES), barnyardgrass (Echinochloa crus-galli, ECHCG), poinsettia (Euphorbia heterophylla, EPHHL), ivyleaf morning-glory (Ipomoea hederacea, IPOHE), kochia (Kochia scoparia, KCHSC), wild buckwheat (Polygonum convolvulus, POLCO), grain sorghum (Sorghum vulgare, SORVU), chickweed (Stellaria media, STEME), wild pansy (Viola tricolor, VIOTR), was evaluated.
(§5) Weighed amounts of technical material were dissolved in a volume of 97:3 volume per volume (v/v) acetone/dimethyl sulfoxide (DMSO) to stock solutions. […] The concentrated stock solutions were diluted with an aqueous mixture of 1.5% v/v of Agri-dex crop oil concentrate to provide the appropriate application rates. Compound requirements are based upon a 12 milliliter (mL) application volume at a rate of 187 liters per hectare (L/ha). […]

[2] = test system: ivyleaf morning-glory (Ipomoea hederacea, IPOHE); test: as above; type: in vivo
Protocol: as §1, §2, §3, §4, §5

[3] = test system: velvetleaf (Abutilon theophrasti, ABUTH); test: as above; type: in vivo; details: 15 g ai/ha
[4] = test system: giant foxtail (Setaria faberi, SETFA); test: as above; type: in vivo
[5] = test system: large crabgrass (Digitaria sanguinalis, DIGSA); test: as above; type: in vivo
[6] = test system: kochia (Kochia scoparia, KCHSC); test: as above; type: in vivo
Protocol: as §1, §2
as §3, with “mixtures. […]” for “mixtures.”
(§6) Weighed amounts of technical material were dissolved in a volume of 97:3 volume per volume (v/v) acetone/dimethyl sulfoxide (DMSO) to stock solutions. […] The concentrated stock solutions were diluted with an aqueous mixture of 1.5% v/v of Agri-dex crop oil concentrate to provide the appropriate application rates. Compound requirements are based upon a 12 milliliter (mL) application volume at a rate of 187 liters per hectare (L/ha).

[7] = test system: common rice (Oryza sativa, ORYSA); test: Postemergence crop injury (phytotoxicity), greenhouse trial (visual injury 0-100%)
Protocol: as §1, §2, §3, §4, §5

[8] = test system: wild pansy (Viola tricolor, VIOTR); test: Postemergence herbicidal activity, greenhouse trial (visual injury 0-100%); type: in vivo
Protocol: as §1, §2, §3
as §4, with “Compound 1 was formulated as an EC and was combined with florasulam, cloransulam, diclosulam, flumetsulam, penoxsulam, or pyroxsulam.” left out
as §6

[9] = test system: thistle (Cirsium arvense, CIRAR); test: as above; type: in vivo
Protocol: as §1, §2
as §3, with “mixtures. […]” for “mixtures.”
as §6

[10] = test system: barnyardgrass (Echinochloa crus-galli, ECHCG); test: as above; type: in vivo
Protocol: as §1, §2, §3, §4, §5

[11] = test system: winter wheat (Triticum aestivum, TRZAW); test: Postemergence crop injury (phytotoxicity), greenhouse trial (visual injury 0-100%); details: TRZAW
Protocol: as §1
as §2, with “technical” for “technical or formulated”, “material” for “material (emulsifiable concentrate (EC) or soluble concentrate (SL))”
as §3
Compound 2 was combined with florasulam and applied to winter wheat (TRZAW) and the phytotoxicity of the herbicidal composition was measured. In addition, the efficacy of the herbicidal composition on poinsettia (Euphorbia heterophylla, EPHHL) and […] (Cyperus esculentus, CYPES) was evaluated.
as §5, with “technical or formulated” for “technical”, “material (emulsifiable concentrate (EC) or soluble concentrate (SL))” for “material”, “(L/ha). Spray solutions of the experimental compound mixtures were prepared by adding the stock solutions to the appropriate amount of dilution solution to form a 12 mL spray solution in two-way combinations.” for “(L/ha).”

[12] = test system: nutsedge (Cyperus esculentus, CYPES); test: Postemergence herbicidal activity, greenhouse trial (visual injury 0-100%); type: in vivo
Protocol: as §1
as §2, with “technical” for “technical or formulated”, “material” for “material (emulsifiable concentrate (EC) or soluble concentrate (SL))”
as §3, with “mixtures. […]” for “mixtures.”
as §2

[13] = test system: blackgrass (Alopecurus myosuroides, ALOMY); test: as above; type: in vivo
Protocol: as §1, §2, §3, §4, §5

[14] = test system: wild oat (Avena fatua, AVEFA); test: as above; type: in vivo
Protocol: as §1, §2, §3, §4, §5

[15] = test system: pigweed (Amaranthus retroflexus, AMARE); test: as above; type: in vivo; details: Amaranthus retroflexus, post-emergence, read-out: % visual injury Obs
Protocol: as §1, §2
as §3, with “mixtures. […]” for “mixtures.”
as §6

[16] = test system: common lambsquarters (Chenopodium album L., CHEAL); test: as above; type: in vivo; details: Chenopodium album, post-emergence, read-out: % visual injury Obs
Protocol: as §1, §2, §3, §4, §5

[17] = test system: poinsettia (Euphorbia heterophylla, EPHHL); test: as above; type: in vivo; details: Euphorbia heterophylla, post-emergence, read-out: % visual injury Obs
Protocol: as §1
as §2, with “technical” for “technical or formulated”, “material” for “material (emulsifiable concentrate (EC) or soluble concentrate (SL))”
as §3, with “mixtures. […]” for “mixtures.”
as §2

pyribenzoxim
% visual injury Obs [1]: 40% | % visual injury Obs ([2]; 15 g ai/ha): 70% | % visual injury Obs [3]: 10% | % visual injury Obs ([4]; 15 g ai/ha): 70% | % visual injury Obs ([5]; 15 g ai/ha): 0% | % visual injury Obs ([6]; 15 g ai/ha): 0% | % visual injury Obs ([7]; 15 g ai/ha): 0%

COc1cc(OC)nc(Oc2cccc(Oc3nc(OC)cc(OC)n3)c2C(=O)[O-])n1.[Na+] [Bispyribac-sodium]
% visual injury Obs ([8]; 10 g ai/ha): 80% | % visual injury Obs ([9]; 10 g ai/ha): 95% | % visual injury Obs ([7]; 10 g ai/ha): 10%

metsulfuron
% visual injury Obs ([10]; ECHCG, metsulfuron 1.5 g ai/ha): 0% | % visual injury Obs ([11]; metsulfuron 1.5 g ai/ha): 0% | % visual injury Obs ([6]; KCHSC, metsulfuron 1.5 g ai/ha): 70% | % visual injury Obs ([9]; CIRAR, metsulfuron 1.5 g ai/ha): 90% | % visual injury Obs ([7]; ORYSA, metsulfuron 1.5 g ai/ha): 20% | % visual injury Obs ([12]; CYPES, metsulfuron 1.5 g ai/ha): 50%

CC(C)C1(C)N=C(c2ncccc2C(=O)O)NC1=O (centres unmarked) [Imazapyr, imazapyr]
% visual injury Obs ([13]; 280 g ai/ha): 97% | pest or weed control at 280 g/ha ([2]; Ipomoea hederacea, post-emergence, 280 g ai/ha, read-out: % visual injury Obs): 85% | pest or weed control at 280 g/ha ([8]; Viola tricolor, post-emergence, 280 g ai/ha, read-out: % visual injury Obs): 80% | % visual injury Obs ([5]; 280 g ai/ha): 95%

Cc1cnc(C2=NC(C)(C(C)C)C(=O)N2)c(C(=O)O)c1 (centres unmarked) [Imazapic, imazapic]
% visual injury Obs ([14]; 35 g ai/ha): 95% | pest or weed control at 35 g/ha ([10]; Echinochloa crus-galli, post-emergence, 35 g ai/ha, read-out: % visual injury Obs): 93% | pest or weed control at 35 g/ha ([2]; Ipomoea hederacea, post-emergence, 35 g ai/ha, read-out: % visual injury Obs): 75% | pest or weed control at 35 g/ha ([8]; Viola tricolor, post-emergence, 35 g ai/ha, read-out: % visual injury Obs): 10% | % visual injury Obs ([4]; 35 g ai/ha): 90%

COc1cc(OC)nc(NC(=O)NS(=O)(=O)Nc2ccccc2C(=O)N(C)C)n1 [Orthosulfamuron, orthosulfamuron]
pest or weed control at 15 g/ha ([2]; Ipomoea hederacea, post-emergence, IPOHE, orthosulfamuron 15 g ai/ha, read-out: % visual injury Obs): 90% | % visual injury Obs ([11]; orthosulfamuron 15 g ai/ha): 0% | pest or weed control at 15 g/ha ([6]; Bassia scoparia, post-emergence, KCHSC, orthosulfamuron 15 g ai/ha, read-out: % visual injury Obs): 0% | pest or weed control at 15 g/ha ([15]; AMARE, orthosulfamuron 15 g ai/ha): 10% | % visual injury Obs ([7]; ORYSA, orthosulfamuron 15 g ai/ha): 0%

Nc1c(F)c(-c2ccc3cc[nH]c3c2F)nc(C(=O)OCc2ccccc2)c1Cl [Compound 2]
% visual injury Obs ([13]; 5 g ae/ha): 0% | % visual injury Obs ([13]; 10 g ae/ha): 0% | % visual injury Obs ([14]; 5 g ae/ha): 0% | % visual injury Obs ([14]; 10 g ae/ha): 0% | pest or weed control at 5 g/ha ([16]; 5 g ae/ha): 88% | pest or weed control at 10 g/ha ([16]; 10 g ae/ha): 99% | pest or weed control at 5 g/ha ([2]; Ipomoea hederacea, post-emergence, 5 g ae/ha, read-out: % visual injury Obs): 10% | pest or weed control at 10 g/ha ([2]; Ipomoea hederacea, post-emergence, 10 g ae/ha, read-out: % visual injury Obs): 20% | pest or weed control at 5 g/ha ([15]; 5 g ae/ha): 88% | pest or weed control at 10 g/ha ([15]; 10 g ae/ha): 100% | pest or weed control at 5 g/ha ([17]; 5 g ae/ha): 35% | pest or weed control at 10 g/ha ([17]; 10 g ae/ha): 75% | pest or weed control at 5 g/ha ([12]; Cyperus, post-emergence, 5 g ae/ha, read-out: % visual injury Obs): 5% | pest or weed control at 10 g/ha ([12]; Cyperus, post-emergence, 10 g ae/ha, read-out: % visual injury Obs): 10%
